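96-well plates; 48 h exposure; 5 concentrations. Endpoints by linear interpolation between flanking doses. Not reached: highest tested concentration assigned. The concentration for 50% growth inhibition is given as GI50.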 Active and inactive are the calls of the source. Cut-off read from the data, not from the text of the source: active = GI50 up to about 1.1 µM and inactive = higher.
What was measured:
Assay in all cases: inhibition of tumour cell growth, NCI panel, 48 h
KM12 = test system: KM12
LOX IMVI = test system: LOX IMVI
DU-145 = test system: DU-145
A498 = test system: A498
MDA-N = test system: MDA-N
SF-295 = test system: SF-295
NCI-H226 = test system: NCI-H226
SK-OV-3 = test system: SK-OV-3
NCI-H460 = test system: NCI-H460
MDA-MB-435 = test system: MDA-MB-435
EKVX = test system: EKVX
A549 = test system: A549
SNB-75 = test system: SNB-75
ACHN = test system: ACHN
BT-549 = test system: BT-549
SF-268 = test system: SF-268
T47D = test system: T47D
HOP-92 = test system: HOP-92
NCI-H522 = test system: NCI-H522

SMILES	GI50 (KM12)	GI50 (LOX IMVI)	GI50 (DU-145)	GI50 (A498)	GI50 (MDA-N)	GI50 (SF-295)	GI50 (NCI-H226)	GI50 (SK-OV-3)	GI50 (NCI-H460)	GI50 (MDA-MB-435)	GI50 (EKVX)	GI50 (A549)	GI50 (SNB-75)	GI50 (ACHN)	GI50 (BT-549)	GI50 (SF-268)	GI50 (T47D)	GI50 (HOP-92)	GI50 (NCI-H522)
CC(=O)NC(C)(C)C1CCC(C)CC1 (configuration not stated)	> 100 µM (inactive)	> 100 µM (inactive)	> 100 µM (inactive)	> 100 µM (inactive)	> 100 µM (inactive)	> 100 µM (inactive)	> 100 µM (inactive)	> 100 µM (inactive)	> 100 µM (inactive)	> 100 µM (inactive)	> 100 µM (inactive)	> 100 µM (inactive)	> 100 µM (inactive)	> 100 µM (inactive)	> 100 µM (inactive)	> 100 µM (inactive)			
CC12CCC(CC(=O)/C1=C(/Br)I)C2(C)C (configuration not stated)	17.9 µM (inactive)	0.0789 µM (active)	17.7 µM (inactive)	19.3 µM (inactive)	12.2 µM (inactive)	0.31 µM (active)	13.8 µM (inactive)	20.7 µM (inactive)	> 100 µM (inactive)	13.7 µM (inactive)	19.5 µM (inactive)	14.6 µM (inactive)	16.3 µM (inactive)	18.2 µM (inactive)		14.6 µM (inactive)	21.7 µM (inactive)	17.3 µM (inactive)	
O=C(O)C1(CC(CCCN2CCCCC2)c2ccccc2)CCCC1 (configuration not stated)	> 100 µM (inactive)	> 100 µM (inactive)	> 100 µM (inactive)	> 100 µM (inactive)	> 100 µM (inactive)	> 100 µM (inactive)	> 100 µM (inactive)	> 100 µM (inactive)	> 100 µM (inactive)	> 100 µM (inactive)	> 100 µM (inactive)	> 100 µM (inactive)	> 100 µM (inactive)	> 100 µM (inactive)		> 100 µM (inactive)	> 100 µM (inactive)	> 100 µM (inactive)	> 100 µM (inactive)
Cn1nc(-c2ccccc2)c(C(=O)/C=C/c2ccccc2)c(N2CCCCC2)c1=O		11.7 µM (inactive)						> 100 µM (inactive)	7.67 µM (inactive)		> 100 µM (inactive)	9.86 µM (inactive)		46.1 µM (inactive)		23.7 µM (inactive)		7.31 µM (inactive)	7.05 µM (inactive)
O=C1OCC(O)=C1C(c1ccc(Cl)cc1)c1cc2c(cc1O)OCO2 (configuration not stated)	> 100 µM (inactive)	> 100 µM (inactive)	> 100 µM (inactive)	> 100 µM (inactive)	> 100 µM (inactive)		> 100 µM (inactive)	> 100 µM (inactive)	> 100 µM (inactive)	> 100 µM (inactive)	> 100 µM (inactive)	> 100 µM (inactive)	> 100 µM (inactive)	> 100 µM (inactive)	> 100 µM (inactive)	> 100 µM (inactive)		> 100 µM (inactive)	
CC(Oc1ccc(Cl)cc1Cl)C(=O)NN1C(=O)CSC1c1ccc(Cl)cc1 (configuration not stated)	86.3 µM (inactive)	56 µM (inactive)	63.5 µM (inactive)	25.2 µM (inactive)		50.6 µM (inactive)	17.6 µM (inactive)	54.3 µM (inactive)	> 100 µM (inactive)	> 100 µM (inactive)	80 µM (inactive)	31 µM (inactive)	27.9 µM (inactive)	42.5 µM (inactive)	43.7 µM (inactive)	88.7 µM (inactive)	42.5 µM (inactive)	21 µM (inactive)	93.1 µM (inactive)
CCCC(=O)NC(NC1CCCCC1)(C(=O)OCC)C(F)(F)F (configuration not stated)	> 100 µM (inactive)	> 100 µM (inactive)	> 100 µM (inactive)		> 100 µM (inactive)	> 100 µM (inactive)	> 100 µM (inactive)	> 100 µM (inactive)	> 100 µM (inactive)	> 100 µM (inactive)	> 100 µM (inactive)	> 100 µM (inactive)	29.7 µM (inactive)	> 100 µM (inactive)		> 100 µM (inactive)	> 100 µM (inactive)	> 100 µM (inactive)	> 100 µM (inactive)
CCCNC(=O)CCC(C)C1CCC2C3C(C[C@H](OC(C)=O)[C@]12C)[C@@]1(C)CCC2(C[C@H]1C[C@H]3OC(C)=O)OOC1(CC[C@]3(C)C4C[C@H](OC(C)=O)[C@]5(C)C(C(C)CCC(=O)NCCC)CCC5C4[C@H](OC(C)=O)C[C@@H]3C1)OO2 (some centres not stated)	> 100 µM (inactive)	> 100 µM (inactive)	53.2 µM (inactive)		> 100 µM (inactive)	60.4 µM (inactive)	20.8 µM (inactive)	55.5 µM (inactive)	> 100 µM (inactive)	> 100 µM (inactive)	57 µM (inactive)	> 100 µM (inactive)	57.5 µM (inactive)	4.37 µM (inactive)	> 100 µM (inactive)	32.1 µM (inactive)			> 100 µM (inactive)

From ChEMBL document CHEMBL1201862, “PubChem BioAssay data set” (2004)
